Results reported in US10077261B2, “Imidazolin-5-one derivative useful as FASN inhibitors for the treatment of cancer” (Janssen Pharmaceutica NV, priority 2012, dated 2018).

Target: T1, hFASN enzyme (full length) (Homo sapiens, UniProt P49327)
T1 construct: 10 μL hFASN enzyme (full length, 300 ng, purified in house); made in house
Assay: Fatty Acid Synthase (FASN) inhibition scintillation proximity assay
Assay type: biochemical
Conditions: for inhibition at 10 µM: read-out: Human FASN % inhibition @ 10 μM, 10 μM test compound; for IC50: read-out: Human FASN pIC50 (converted)
Summary of the method: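 Read-out relies on hydrophobic ³H-palmitate product, formed from ³H-acetyl-CoA and malonyl-CoA, binding streptavidin imaging beads, measured at 610±20 nm after at least 24 h. Full-length enzyme (300 ng) in phosphate buffer pH 7.5 with DTT; eight compound concentrations, 0.01–30 μM.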

T1 sequence (P49327 whole entry): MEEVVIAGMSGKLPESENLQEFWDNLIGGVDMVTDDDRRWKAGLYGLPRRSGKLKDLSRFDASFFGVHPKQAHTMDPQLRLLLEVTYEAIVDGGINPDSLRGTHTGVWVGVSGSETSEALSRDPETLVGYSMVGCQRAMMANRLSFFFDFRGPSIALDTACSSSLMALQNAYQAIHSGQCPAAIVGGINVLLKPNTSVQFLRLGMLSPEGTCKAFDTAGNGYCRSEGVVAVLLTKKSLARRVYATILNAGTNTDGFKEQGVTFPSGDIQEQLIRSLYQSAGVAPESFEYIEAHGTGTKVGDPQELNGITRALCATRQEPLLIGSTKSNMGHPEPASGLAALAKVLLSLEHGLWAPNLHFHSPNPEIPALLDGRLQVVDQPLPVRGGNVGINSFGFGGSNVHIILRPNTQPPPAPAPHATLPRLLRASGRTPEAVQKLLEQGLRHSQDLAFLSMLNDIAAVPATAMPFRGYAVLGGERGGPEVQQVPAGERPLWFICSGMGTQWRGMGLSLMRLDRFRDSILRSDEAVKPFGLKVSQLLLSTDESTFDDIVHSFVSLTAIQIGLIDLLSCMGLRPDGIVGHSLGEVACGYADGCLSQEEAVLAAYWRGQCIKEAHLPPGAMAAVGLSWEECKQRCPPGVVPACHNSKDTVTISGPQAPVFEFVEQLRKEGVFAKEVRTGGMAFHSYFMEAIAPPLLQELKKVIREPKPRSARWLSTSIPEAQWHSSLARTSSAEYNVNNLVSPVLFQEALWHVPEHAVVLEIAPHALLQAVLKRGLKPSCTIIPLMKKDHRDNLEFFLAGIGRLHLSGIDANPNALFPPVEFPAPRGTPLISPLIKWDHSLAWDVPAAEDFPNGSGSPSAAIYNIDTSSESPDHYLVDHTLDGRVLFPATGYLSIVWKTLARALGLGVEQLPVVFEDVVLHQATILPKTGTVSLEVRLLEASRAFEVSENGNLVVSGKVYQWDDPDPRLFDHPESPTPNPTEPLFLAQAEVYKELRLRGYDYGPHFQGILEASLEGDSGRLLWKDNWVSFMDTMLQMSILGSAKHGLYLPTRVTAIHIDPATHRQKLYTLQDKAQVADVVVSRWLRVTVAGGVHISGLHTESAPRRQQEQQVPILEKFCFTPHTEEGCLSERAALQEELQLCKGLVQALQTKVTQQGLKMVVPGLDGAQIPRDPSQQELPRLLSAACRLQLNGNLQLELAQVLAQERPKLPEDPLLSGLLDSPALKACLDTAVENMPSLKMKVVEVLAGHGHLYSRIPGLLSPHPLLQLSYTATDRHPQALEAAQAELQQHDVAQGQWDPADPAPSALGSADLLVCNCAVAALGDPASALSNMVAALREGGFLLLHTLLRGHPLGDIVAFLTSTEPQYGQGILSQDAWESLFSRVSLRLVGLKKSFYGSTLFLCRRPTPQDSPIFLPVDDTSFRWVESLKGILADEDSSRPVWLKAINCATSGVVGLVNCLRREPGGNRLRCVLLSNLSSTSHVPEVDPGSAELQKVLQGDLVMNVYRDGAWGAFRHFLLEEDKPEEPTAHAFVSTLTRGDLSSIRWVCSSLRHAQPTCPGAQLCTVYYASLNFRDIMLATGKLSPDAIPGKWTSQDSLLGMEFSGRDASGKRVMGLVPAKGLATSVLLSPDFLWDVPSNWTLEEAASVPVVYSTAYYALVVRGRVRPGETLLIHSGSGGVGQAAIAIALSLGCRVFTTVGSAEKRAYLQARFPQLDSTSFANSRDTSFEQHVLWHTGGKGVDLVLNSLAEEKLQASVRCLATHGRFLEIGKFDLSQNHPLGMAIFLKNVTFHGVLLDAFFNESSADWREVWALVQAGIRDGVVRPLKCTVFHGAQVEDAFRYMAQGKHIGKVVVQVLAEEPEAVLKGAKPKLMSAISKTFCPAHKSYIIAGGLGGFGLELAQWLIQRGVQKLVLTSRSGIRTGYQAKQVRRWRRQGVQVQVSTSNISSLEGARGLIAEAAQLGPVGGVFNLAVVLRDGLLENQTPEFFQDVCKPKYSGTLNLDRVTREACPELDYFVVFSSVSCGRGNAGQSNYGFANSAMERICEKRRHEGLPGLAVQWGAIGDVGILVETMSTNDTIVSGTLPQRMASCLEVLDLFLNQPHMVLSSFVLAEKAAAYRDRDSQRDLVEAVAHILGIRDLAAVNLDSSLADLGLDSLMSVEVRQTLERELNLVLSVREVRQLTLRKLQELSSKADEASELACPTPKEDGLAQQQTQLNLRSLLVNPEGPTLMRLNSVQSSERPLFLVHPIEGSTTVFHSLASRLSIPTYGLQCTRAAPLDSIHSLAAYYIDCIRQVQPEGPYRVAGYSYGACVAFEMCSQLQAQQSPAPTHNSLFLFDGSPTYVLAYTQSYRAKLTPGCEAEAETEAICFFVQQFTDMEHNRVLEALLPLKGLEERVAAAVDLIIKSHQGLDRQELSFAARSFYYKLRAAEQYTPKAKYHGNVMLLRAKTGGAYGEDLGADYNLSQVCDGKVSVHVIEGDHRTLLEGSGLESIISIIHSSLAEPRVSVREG

SMILES	inhibition at 10 µM	IC50
COC(=O)N1CC[C@@H](CN2C(=O)C3(CN(C(=O)OC)C3)N=C2c2ccc(-c3ccc(-c4cnn(C)c4)cc3)cc2)C1 [compound 906, (S)-methyl 7-((1-(methoxycarbonyl)pyrrolidin-3-yl)methyl)-6-(4′-(1-methyl-1H-pyrazol-4-yl)-[1,1′-biphenyl]-4-yl)-8-oxo-2,5,7-triazaspiro[3.4]oct-5-ene-2-carboxylate]	14%	> 10 µM
COC(=O)N1CC2(C1)N=C(c1ccc(-c3ccc4c(cnn4C)c3)cc1)N(C[C@@H]1CCN(C(=O)C(F)(F)F)C1)C2=O [compound 907, (R)-methyl 6-(4-(1-methyl-1H-indazol-5-yl)phenyl)-8-oxo-7-((1-(2,2,2-trifluoroacetyl)pyrrolidin-3-yl)methyl)-2,5,7-triazaspiro[3.4]oct-5-ene-2-carboxylate]	21%	> 10 µM
Cn1ncc2cc(-c3ccc(C4=NC5(CCOCC5)C(=O)N4CC4CN(C(=O)c5nccs5)C4)cc3)ccc21 [compound 908, 2-(4-(1-methyl-1H-indazol-5-yl)phenyl)-3-((1-(thiazole-2-carbonyl)azetidin-3-yl)methyl)-8-oxa-1,3-diazaspiro[4.5]dec-1-en-4-one]	2%	> 10 µM
Cn1ncc2cc(-c3ccc(C4=NC5(CCOC5)C(=O)N4CC4CN(C(=O)c5nccs5)C4)cc3)ccc21 (stereo not drawn) [compound 909, 2-(4-(1-methyl-1H-indazol-5-yl)phenyl)-3-((1-(thiazole-2-carbonyl)azetidin-3-yl)methyl)-7-oxa-1,3-diazaspiro[4.4]non-1-en-4-one]	6%	> 10 µM
O=C(N1CC(CN2C(=O)C3(CCOCC3)N=C2c2ccc(-c3ccc4cccnc4c3)cc2)C1)C(F)(F)F [compound 910, 2-(4-(quinolin-7-yl)phenyl)-3-((1-(2,2,2-trifluoroacetyl)azetidin-3-yl)methyl)-8-oxa-1,3-diazaspiro[4.5]dec-1-en-4-one]	12%	> 10 µM
Cn1cc(-c2ccc(-c3ccc(C4=NC5(CCOCC5)C(=O)N4CC4CN(C(=O)c5nccs5)C4)cc3)cc2)cn1 [compound 911, 2-(4′-(1-methyl-1H-pyrazol-4-yl)-[1,1′-biphenyl]-4-yl)-3-((1-(thiazole-2-carbonyl)azetidin-3-yl)methyl)-8-oxa-1,3-diazaspiro[4.5]dec-1-en-4-one]	7%	> 10 µM
CS(=O)(=O)N1CC(CN2C(=O)C3(CCOCC3)N=C2c2ccc(-c3ccc4cccnc4c3)cc2)C1 [compound 912, 3-((1-(methylsulfonyl)azetidin-3-yl)methyl)-2-(4-(quinolin-7-yl)phenyl)-8-oxa-1,3-diazaspiro[4.5]dec-1-en-4-one]	1%	> 10 µM
CS(=O)(=O)N1CC[C@@H](CN2C(=O)C3(CCOCC3)N=C2c2ccc(-c3ccc4occc4c3)cc2)C1 [compound 913, (S)-2-(4-(benzofuran-5-yl)phenyl)-3-((1-(methylsulfonyl)pyrrolidin-3-yl)methyl)-8-oxa-1,3-diazaspiro[4.5]dec-1-en-4-one]	0.4%	> 10 µM
CS(=O)(=O)N1CC[C@@H](CN2C(=O)C3(CCOC3)N=C2c2ccc(-c3ccc4occc4c3)cc2)C1 (stereo partly drawn) [compound 914, 2-(4-(benzofuran-5-yl)phenyl)-3-(((S)-1-(methylsulfonyl)pyrrolidin-3-yl)methyl)-7-oxa-1,3-diazaspiro[4.4]non-1-en-4-one]	1%	> 10 µM
COC(=O)N1CC[C@@H](CN2C(=O)C3(CCOC3)N=C2c2ccc(-c3ccc4c(cnn4C)c3)cc2)C1 (stereo partly drawn) [compound 915, (3S)-methyl 3-((2-(4-(1-methyl-1H-indazol-5-yl)phenyl)-4-oxo-7-oxa-1,3-diazaspiro[4.4]non-1-en-3-yl)methyl)pyrrolidin-1-carboxylate]	11%	> 10 µM
COC(=O)N1CC[C@@H](CN2C(=O)C3(CN(C(=O)OC)C3)N=C2c2ccc(-c3ccc4c(cnn4C)c3)cc2)C1 [compound 916, (S)-methyl 7-((1-(methoxycarbonyl)pyrrolidin-3-yl)methyl)-6-(4-(1-methyl-1H-indazol-5-yl)phenyl)-8-oxo-5,7-triazaspiro[3.4]oct-5-ene-2-carboxylate]	20%	> 10 µM
COC(=O)N1CC2(C1)N=C(c1ccc(-c3ccc4c(cnn4C)c3)cc1)N(C[C@@H]1CCN(S(C)(=O)=O)C1)C2=O [compound 917, (S)-methyl 6-(4-(1-methyl-1H-indazol-5-yl)phenyl)-7-((1-(methylsulfonyl)pyrrolidin-3-yl)methyl)-8-oxo-2,5,7-triazaspiro[3.4]oct-5-ene-2-carboxylate]	2%	> 10 µM
COC(=O)N1CC2(C1)N=C(c1ccc(-c3ccc(-c4cnn(C)c4)cc3)cc1)N(C[C@@H]1CCN(C(=O)C(F)(F)F)C1)C2=O [compound 919, (R)-methyl 6-(4′-(1-methyl-1H-pyrazol-4-yl)-[1,1′-biphenyl]-4-yl)-8-oxo-7-((1-(2,2,2-trifluoroacetyl)pyrrolidin-3-yl)methyl)-2,5,7-triazaspiro[3.4]oct-5-ene-2-carboxylate]	12%	> 10 µM
O=C(c1nccs1)N1CC[C@@H](CN2C(=O)C3(CCOC3)N=C2c2ccc(-c3ccc4cccnc4c3)cc2)C1 (stereo partly drawn) [compound 920, 2-(4-(quinolin-7-yl)phenyl)-3-(((R)-1-(thiazole-2-carbonyl)pyrrolidin-3-yl)methyl)-7-oxa-1,3-diazaspiro[4.4]non-1-en-4-one]	35%	> 10 µM
Cn1cc(-c2ccc(-c3ccc(C4=NC5(CCOCC5)C(=O)N4CC4CN(S(C)(=O)=O)C4)cc3)cc2)cn1 [compound 921, 2-(4′-(1-methyl-1H-pyrazol-4-yl)-[1,1′-biphenyl]-4-yl)-3-((1-(methylsulfonyl)azetidin-3-yl)methyl)-8-oxa-1,3-diazaspiro[4.5]dec-1-en-4-one]	-7%	> 10 µM
COC(=O)N1CC2(C1)N=C(c1ccc(-c3ccc(-c4cnn(C)c4)cc3)cc1)N(C[C@@H]1CCN(C(=O)N3CCCC3)C1)C2=O [compound 924, (S)-methyl 6-(4′-(1-methyl-1H-pyrazol-4-yl)-[1,1′-biphenyl]-4-yl)-8-oxo-7-((1-(pyrrolidine-1-carbonyl)pyrrolidin-3-yl)metrhyl)-2,5,7-triazaspiro[3.4]oct-5-ene-2-carboxylate]	41%	> 10 µM
O=C(C1CC1)N1CCC[C@@H](CN2C(=O)C3(CC3)N=C2c2ccc(-c3ccc(O)cc3)cc2)C1 [compound 925, (R)-6-((1-(cyclopropanecarbonyl)piperidin-3-yl)methyl)-5-(4′-hydroxy-[1,1′-biphenyl]-4-yl)-4,6-diazaspiro[2.4]hept-4-en-7-one]	5%	> 10 µM
Cn1ncc2cc(-c3ccc(C4=NC5(CCOCC5)C(=O)N4C[C@@H]4CCN(S(C)(=O)=O)C4)cc3)ccc21 [compound 926, (S)-2-(4-(1-methyl-1H-indazol-5-yl)phenyl)-3-((1-(methylsulfonyl)pyrrolidin-3-yl)methyl)-8-oxa-1,3-diazaspiro[4.5]dec-1-en-4-one]	-8%	> 10 µM
